Experiments:
Assay type in all cases: cell-based
[1] = test system: MM cell lines (MM.1S, 8226, KMS-11)
Protocol: Cytotoxicity assay: Cells were incubated for 24 h at 37° C. in 5% CO2 at which time drug treatments began and continued for 24 h. At this time cells were transferred to a tube followed by centrifugation at 400 g for 5 min. The pellets were resuspended in 1 ml of Hanks solution and analyzed by Vi-Cell (Beckman Coulter, Fullerton, Calif., USA) cell viability analyzer.

[2] = test system: MM.1S cells; experiment: Cytoplasmic Ca2+ (indo-1) after CCCP; conditions: 10 μM CCCP
Protocol: (§1) […]. A) ψm potential, B) mitochondrial Ca^2+ and C) cytoplasmic Ca^2+ levels were measured using the fluorochromes JC-1, X-rhod-1 and indo-1, respectively. After 10 min of initial baseline measurement, CCCP was added into each well to achieve a final concentration of 10 μM and changes in fluorescence intensity was assayed for up to 2 h. In the graphs the time point of CCCP addition is marked as ‘0’. The graph is an average of triplicate samples with +SD.
(§2) Measurement of cytoplasmic and mitochondrial calcium: Cytoplasmic Ca^2+ concentration was estimated by using the cell permeant ratiometric fluorochrome indo-1-AM (Invitrogen, Carlsbad, Calif., USA) while mitochondrial Ca^2+ was measured by X-Rhod-1-AM (Invitrogen, Carlsbad, Calif., USA). In the latter assay, to normalize mitochondrial Ca^2+ signal to mitochondria number, Mitotracker Green (Invitrogen, Carlsbad, Calif., USA) fluorescence was simultaneously analyzed. Experiments were performed in cells loaded with either 2.5 μM of indo-1 or 5 μM X-rhod-1 and 250 nM of Mitotracker at 37° C. for 45 min. Cells were, then, centrifuged at 400 g for 5 min and resuspended in their growth medium followed by distribution of 100 μl of aliquots into 96 well optical bottom plates (Nalge Nunc, Int., Rochester, N.Y., USA) and fluorescence was measured by Spectra Max Gemini Plus (Molecular Devices, Sunnyvale, Calif., USA). The average of triplicates from untreated samples was used as control reading and increase in cytoplasmic or mitochondrial Ca^2+ was calculated as percent increase from control samples.

[3] = test system: REH cells; experiment: Cytoplasmic Ca2+ (indo-1) after CCCP; conditions: 10 μM CCCP
Protocol: as §1, §2

[4] = test system: non-myeloma cell lines (NALM6, 143B, MDA-MB-435, 1420); conditions: higher concentrations; all cell types
Protocol: (§3) Cytotoxicity assay: Cells were incubated for 24 hr at 37° C. in 5% CO2 at which time drug treatments began and continued for 24 hr. At this time attached cells were trypsinized and combined with their respective culture media while suspension cells were directly transferred to a tube followed by centrifugation at 400 g for 5 min. The pellets were resuspended in 1 ml of Hanks solution and analyzed by Vi-Cell (Beckman Coulter, Fullerton, Calif.) cell viability analyzer.

[5] = test system: multiple myeloma cell lines (MM.1S, 8226, KMS-11, U266)
Protocol: as §3

[6] = test system: MM.1S and REH cells; experiment: ATP levels after 6 h of CCCP treatment; conditions: 6 h CCCP; REH versus MM.1S
Protocol: (§4) A) Reversal of CCCP induced toxicity by either 10 μM BAPTA-AM or 50 μM of Z-VAD was investigated using trypan blue exclusion assays. The bars represent the average of triplicate samples +SD. B) ATP levels were assayed following 6 h of treatment with indicated concentrations of CCCP. The bars represent the average of triplicate samples +SD. C) Induction of UPR, activation of AMPK pathway and cleavage of caspase 3 was analyzed by western blots following 24 h treatment with indicated concentrations of CCCP in MM.1S and REH cell lines. β-Actin was used as a loading control. D) The quantification of phosphorylated AMPK and total AMPK bands in the previous panel was done using a Bio-Rad gel reader which employs Quality I software. The bars represent the fold increase in the ratio of p-AMPK/AMPK in treated versus untreated samples from three independent experiments +SD.

[7] = test system: REH cells; experiment: Western blot after 24 h CCCP (UPR, AMPK pathway, caspase 3)
Protocol: as §4
(§5) Western blot analysis: Western blots were performed. Membranes were probed with monoclonal rabbit anti-GRP94, anti GRP-78, anti-PDI, anti-CHOP/GADD153, anti-cleaved caspase 3 (Cell Signaling, Danvers, Mass., USA) and monoclonal mouse anti-β-actin (Sigma, St. Louis, Mo., USA).

[8] = test system: MM.1S and REH cell lines; experiment: Mitochondrial Ca2+ (X-rhod-1) after CCCP; conditions: 10 μM CCCP; both cell types
Protocol: as §1
as §2, with “The average of triplicates from untreated samples was used as control reading and increase in cytoplasmic or mitochondrial Ca^2+ was calculated as percent increase from control samples.” left out

[9] = test system: MM.1S and REH cell lines; experiment: Mitochondrial membrane potential (JC-1) after CCCP; conditions: immediately after 10 μM CCCP
Protocol: as §1
Assaying mitochondrial function: Two parameters were assayed for mitochondrial function: Δψm and oxygen consumption. Δψm was estimated using […] (JC-1, Invitrogen, Carlsbad, Calif., USA). Oxygen consumption was measured in 3×10^6 cells using a Clark's electrode (Hansatech, Cambridge, UK).

[10] = test system: CHOP/GADD153 and cleaved caspase 3 in MM.1S, 8226, KMS-11; experiment: Western blot of CHOP/GADD153 and cleaved caspase 3 in 3 MM cell lines; conditions: CCCP
Protocol: . Induction of UPR-mediated apoptosis following treatment of 3 MM cell lines with four different mitochondrial inhibitors for various time points was assayed by western blot analysis of CHOP and cleaved caspase 3.
as §5

[11] = test system: MM.1S cells
Protocol: as §4, §5

In the case of `N#CC(C#N)=NNc1cccc(Cl)c1` [CCCP], the “cytotoxicity (cell death)” value ([1]; 24 h, all 3 MM cell lines) was “more toxic to MM cells as compared to non-myeloma cells”, the “cell death compared among mitochondrial inhibitors” value ([1]; concentrations of FIG. 13, caspase 3 cleavage and percent of cell death) was “more toxic than either antimycin A or oligomycin” and the “cytoplasmic Ca2+ levels directly after addition” value [2] was “go up in both cell types”. The “cytoplasmic Ca2+ levels later (after clearance phase)” value [2] was “remain elevated”, the “cytoplasmic Ca2+ levels directly after addition” value [3] was “go up in both cell types” and the “cytoplasmic Ca2+ levels later (after clearance phase)” value [3] was “go back to control levels”. For the same compound, the “cytotoxicity at higher concentrations” value [4] was “significant toxicity is induced in all cell types”, the “cytotoxic potency compared to the other mitochondrial inhibitors” value ([5]; 24 h, MM cells) was “equipotency in inducing cytotoxicity in MM cells” and the “order of sensitivity among MM cell lines” value ([5]; 24 h treatment) was “greater in 8226 as compared to MM.1S cells”. The “cytotoxicity (cell death)” value ([5]; 24 h treatment, all 4 MM cell lines) was “more toxic to multiple myeloma cell lines as compared to other cell types”, the ATP levels [6] was “decreased more significantly in REH cells, as compared to MM.1S cells” and the “CCCP concentration required for similar increase of CHOP/GADD153” value ([7]; 24 h, REH) was “at least 10 μM”. The “AMPK phosphorylation at higher doses” value ([7]; REH) was “continues to increase”, the “cleaved caspase 3” value ([7]; REH, even at the 10 μM dose) was “no cleaved caspase 3 can be detected” and the AMPK phosphorylation ([7]; highest dose (10 μM) CCCP, REH compared to MM.1S) was “more phosphorylated”. The “mitochondrial Ca2+” value [8] was “lowering of Ca^2+ concentration in the mitochondrial matrix”, the Δψm [9] was “significantly reduced in both cell types” and the “CHOP/GADD153 induction compared among the 3 MM cell lines” value [10] was “more profound in MM.1S and 8226 as compared to KMS-11”. For the same compound, the “caspase 3 cleavage compared among the 3 MM cell lines” value [10] was “more rapidly in MM.1S and 8226 versus KMS-11”, the “CCCP concentration at which caspase 3 starts to get cleaved” value ([11]; 24 h, MM cells) was 5 µM and the “CCCP concentration giving significant induction of CHOP/GADD153 expression” value ([11]; 24 h, MM.1S) was 2.5 µM. The “potency in upregulating CHOP/GADD153, MM versus B-cell leukemia” value ([11]; FIG. 12c) was “four times more potent”, the “AMPK phosphorylation at higher doses” value ([11]; MM.1S) was “suppressed” and the “eif2α phosphorylation and ATF4 upregulation” value ([11]; MM.1S treated with CCCP) was “not detected”.

Source: US20120070511A1, “MITOCHONDRIAL INHIBITORS AND USES THEREOF” (priority 2009, published 2012)
